Assay results: ChEMBL document CHEMBL1201861, “Genomics of Drug Sensitity in Cancer screening data, Wellcome Trust Sanger Institute”

Tests used:
Test in all cases: cells
Conditions in all cases: Homo sapiens
[1] = test system: COLO-829; assay type: functional, cell-based
Description: SANGER: Inhibition of human COLO-829 cell growth in a cell viability assay.

[2] = test system: COR-L88; assay type: functional, cell-based;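 also: growth inhibition of COR-L88 cells, read out with a cell viability assay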
Description: SANGER: Inhibition of human COR-L88 cell growth in a cell viability assay.

[3] = test system: CTB-1; assay type: functional, cell-based
Description: SANGER: Inhibition of human CTB-1 cell growth in a cell viability assay.

[4] = test system: CW-2; assay type: functional, cell-based;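 also: growth inhibition of CW-2 cells, read out by a cell viability assay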
Description: SANGER: Inhibition of human CW-2 cell growth in a cell viability assay.

[5] = test system: D283 Med; assay type: functional, cell-based
Description: SANGER: Inhibition of human D-283MED cell growth in a cell viability assay.

[6] = test system: D-502MG; assay type: functional, cell-based
Description: SANGER: Inhibition of human D-502MG cell growth in a cell viability assay.

[7] = test system: DOHH-2; assay type: functional, cell-based;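 also: growth inhibition of human DOHH-2 cells, read out with a cell viability assay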
Description: SANGER: Inhibition of human DOHH-2 cell growth in a cell viability assay.

[8] = test system: EM-2; assay type: functional, cell-based;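 also: growth inhibition of EM-2 cells, read out with a cell viability assay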
Description: SANGER: Inhibition of human EM-2 cell growth in a cell viability assay.

[9] = test system: ES7; assay type: functional, cell-based;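 also: growth inhibition of cultured human ES7 cells, read out as cell viability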
Description: SANGER: Inhibition of human ES7 cell growth in a cell viability assay.

[10] = test system: EW-1; assay type: functional, cell-based;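 also: growth inhibition of the human EW-1 cell line, read out by a cell viability assay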
Description: SANGER: Inhibition of human EW-1 cell growth in a cell viability assay.

[11] = test system: EW-16; assay type: functional, cell-based;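 also: growth inhibition of human EW-16 cells, read out as cell viability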
Description: SANGER: Inhibition of human EW-16 cell growth in a cell viability assay.

[12] = test system: EW-18; assay type: functional, cell-based;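 also: growth inhibition of EW-18 cells, read out by a cell viability assay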
Description: SANGER: Inhibition of human EW-18 cell growth in a cell viability assay.

[13] = test system: EW-3; assay type: functional, cell-based;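 also: cell viability assay read-out, IC50 reflects inhibition of growth of the EW-3 cells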
Description: SANGER: Inhibition of human EW-3 cell growth in a cell viability assay.

[14] = test system: HCE-4; assay type: functional, cell-based;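 also: cell viability assay measuring inhibition of growth in the human HCE-4 cell line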
Description: SANGER: Inhibition of human HCE-4 cell growth in a cell viability assay.

[15] = test system: HCE-T; assay type: functional, cell-based;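 also: cell viability assay read-out, reporting inhibition of HCE-T cell growth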
Description: SANGER: Inhibition of human HCE-T cell growth in a cell viability assay.

[16] = test system: HOP-62; assay type: functional, cell-based;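 also: cell growth inhibition determined with a viability assay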
Description: SANGER: Inhibition of human HOP-62 cell growth in a cell viability assay.

[17] = test system: HT-144; assay type: functional, cell-based
Description: SANGER: Inhibition of human HT-144 cell growth in a cell viability assay.

[18] = test system: IA-LM; assay type: functional, cell-based;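 also: cell viability assay measuring growth inhibition of human IA-LM cells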
Description: SANGER: Inhibition of human IA-LM cell growth in a cell viability assay.

[19] = test system: K5; assay type: functional, cell-based
Description: SANGER: Inhibition of human K5 cell growth in a cell viability assay.

[20] = test system: KGN; assay type: functional, cell-based;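 also: growth inhibition of KGN cells, read out with a cell viability assay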
Description: SANGER: Inhibition of human KGN cell growth in a cell viability assay.

[21] = test system: KM12; assay type: functional, cell-based;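 also: KM12 cell growth inhibition, read out with a cell viability assay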
Description: SANGER: Inhibition of human KM12 cell growth in a cell viability assay.

[22] = test system: LB2241-RCC; assay type: functional, cell-based;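 also: cell viability assay measuring how strongly the cultured human renal carcinoma line is prevented from growing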
Description: SANGER: Inhibition of human LB2241-RCC cell growth in a cell viability assay.

[23] = test system: LB771-HNC; assay type: functional, cell-based;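 also: growth inhibition of LB771-HNC human cells, read out with a cell viability assay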
Description: SANGER: Inhibition of human LB771-HNC cell growth in a cell viability assay.

[24] = test system: LC-2-ad; assay type: functional, cell-based;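 also: growth inhibition of human LC-2-ad cells, read out with a cell viability assay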
Description: SANGER: Inhibition of human LC-2-ad cell growth in a cell viability assay.

[25] = test system: LS-1034; assay type: functional, cell-based
Description: SANGER: Inhibition of human LS-1034 cell growth in a cell viability assay.

[26] = test system: LS-123; assay type: functional, cell-based
Description: SANGER: Inhibition of human LS-123 cell growth in a cell viability assay.

[27] = test system: LS-411N; assay type: functional, cell-based
[28] = test system: LU-139; assay type: functional, cell-based
Description: SANGER: Inhibition of human LU-139 cell growth in a cell viability assay.

[29] = test system: MFH-ino; assay type: functional, cell-based;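 also: growth inhibition of human MFH-ino cells, read out by a cell viability assay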
Description: SANGER: Inhibition of human MFH-ino cell growth in a cell viability assay.

[30] = test system: MHH-NB-11; assay type: functional, cell-based;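 also: growth inhibition of human MHH-NB-11 cells, read out by a cell viability assay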
Description: SANGER: Inhibition of human MHH-NB-11 cell growth in a cell viability assay.

[31] = test system: ML-2; assay type: functional, cell-based;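 also: growth inhibition of ML-2 cells, measured with a cell viability readout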
Description: SANGER: Inhibition of human ML-2 cell growth in a cell viability assay.

[32] = test system: MPP-89; assay type: functional, cell-based;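 also: growth inhibition of human MPP-89 cells, read out with a cell viability assay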
Description: SANGER: Inhibition of human MPP-89 cell growth in a cell viability assay.

[33] = test system: NB13; assay type: functional, cell-based;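 also: cell viability readout measuring growth inhibition of human NB13 cells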
Description: SANGER: Inhibition of human NB13 cell growth in a cell viability assay.

[34] = test system: NB69; assay type: functional, cell-based;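 also: growth inhibition of NB69 cells, determined by a cell viability assay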
Description: SANGER: Inhibition of human NB69 cell growth in a cell viability assay.

[35] = test system: NCI-H1581; assay type: functional, cell-based;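 also: cell growth inhibition read out by a viability assay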
Description: SANGER: Inhibition of human NCI-H1581 cell growth in a cell viability assay.

[36] = test system: NCI-H209; assay type: functional, cell-based;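 also: growth inhibition of human NCI-H209 cells, measured by a cell viability assay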
Description: SANGER: Inhibition of human NCI-H209 cell growth in a cell viability assay.

[37] = test system: NCI-H2126; assay type: functional, cell-based;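 also: growth inhibition of the cancer cell line, determined with a cell viability readout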
Description: SANGER: Inhibition of human NCI-H2126 cell growth in a cell viability assay.

[38] = test system: NCI-H226; assay type: functional, cell-based;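 also: cell viability read-out used to gauge growth inhibition of the cells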
Description: SANGER: Inhibition of human NCI-H226 cell growth in a cell viability assay.

[39] = test system: NCI-H23; assay type: functional, cell-based;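 also: cell viability assay measuring growth inhibition of NCI-H23 cells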
Description: SANGER: Inhibition of human NCI-H23 cell growth in a cell viability assay.

[40] = test system: SNU-5; assay type: functional, cell-based;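 also: cell viability readout used to measure growth inhibition in human NCI-SNU-5 cells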
Description: SANGER: Inhibition of human NCI-SNU-5 cell growth in a cell viability assay.

[41] = test system: NH-12; assay type: functional, cell-based;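 also: growth inhibition of NH-12 cells, read out with a cell viability assay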
Description: SANGER: Inhibition of human NH-12 cell growth in a cell viability assay.

[42] = test system: NMC-G1; assay type: functional, cell-based;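 also: growth inhibition of the NMC-G1 cell line, measured with a cell viability read-out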
Description: SANGER: Inhibition of human NMC-G1 cell growth in a cell viability assay.

[43] = test system: OS-RC-2; assay type: functional, cell-based;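 also: growth inhibition of human OS-RC-2 cells, measured by a cell viability assay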
Description: SANGER: Inhibition of human OS-RC-2 cell growth in a cell viability assay.

[44] = test system: P30-OHK; assay type: functional, cell-based;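 also: growth inhibition of the P30-OHK cell line, read out with a cell viability assay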
Description: SANGER: Inhibition of human P30-OHK cell growth in a cell viability assay.

[45] = test system: PSN1; assay type: functional, cell-based;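 also: suppression of growth of human PSN1 cells, read out by a cell viability assay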
Description: SANGER: Inhibition of human PSN1 cell growth in a cell viability assay.

[46] = test system: QIMR-WIL; assay type: functional, cell-based;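 also: growth inhibition of QIMR-WIL cells, read out with a cell viability assay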
Description: SANGER: Inhibition of human QIMR-WIL cell growth in a cell viability assay.

[47] = test system: SF-539; assay type: functional, cell-based;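 also: Read-out is a cell viability assay, with IC50 reflecting inhibition of cell growth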
Description: SANGER: Inhibition of human SF539 cell growth in a cell viability assay.

[48] = test system: SJSA-1; assay type: functional, cell-based;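 also: growth inhibition of human SJSA-1 cells, read out through a cell viability measurement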
Description: SANGER: Inhibition of human SJSA-1 cell growth in a cell viability assay.

[49] = test system: SK-LMS-1; assay type: functional, cell-based;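 also: growth inhibition of human SK-LMS-1 cells, read out with a cell viability assay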
Description: SANGER: Inhibition of human SK-LMS-1 cell growth in a cell viability assay.

[50] = test system: SW684; assay type: functional, cell-based;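 also: growth inhibition of human SW684 cells, measured by a cell viability assay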
Description: SANGER: Inhibition of human SW684 cell growth in a cell viability assay.

[51] = test system: SW872; assay type: functional, cell-based;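 also: growth inhibition of SW872 cells, read out by a viability assay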
Description: SANGER: Inhibition of human SW872 cell growth in a cell viability assay.

[52] = test system: TE-1; assay type: functional, cell-based;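 also: growth inhibition of the human TE-1 cell line, read out with a cell viability assay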
Description: SANGER: Inhibition of human TE-1 cell growth in a cell viability assay.

[53] = test system: 8-MG-BA; assay type: functional, cell-based;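 also: growth inhibition of 8-MG-BA cells, read out with a cell viability assay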
Description: SANGER: Inhibition of human 8-MG-BA cell growth in a cell viability assay.

[54] = test system: A3-KAW; assay type: functional, cell-based;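 also: growth inhibition of human A3-KAW cells, read out with a cell viability assay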
Description: SANGER: Inhibition of human A3-KAW cell growth in a cell viability assay.

[55] = test system: A4-Fuk; assay type: functional, cell-based;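 also: growth inhibition of A4-Fuk cells, read out by a cell viability assay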
Description: SANGER: Inhibition of human A4-Fuk cell growth in a cell viability assay.

[56] = test system: A498; assay type: functional, cell-based;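 also: growth inhibition of human A498 cells, read out with a cell viability assay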
Description: SANGER: Inhibition of human A498 cell growth in a cell viability assay.

[57] = test system: ACN; assay type: functional, cell-based;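 also: growth inhibition of the human ACN cell line, read out via cell viability testing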
Description: SANGER: Inhibition of human ACN cell growth in a cell viability assay.

[58] = test system: ALL-PO; assay type: functional, cell-based;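 also: growth inhibition of ALL-PO cells, read out by a cell viability assay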
Description: SANGER: Inhibition of human ALL-PO cell growth in a cell viability assay.

[59] = test system: BB30-HNC; assay type: functional, cell-based;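 also: growth inhibition of the cultured cell line, read out by a cell viability assay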
Description: SANGER: Inhibition of human BB30-HNC cell growth in a cell viability assay.

[60] = test system: BB65-RCC; assay type: functional, cell-based
Description: SANGER: Inhibition of human BB65-RCC cell growth in a cell viability assay.

[61] = test system: BV-173; assay type: functional, cell-based
Description: SANGER: Inhibition of human BV-173 cell growth in a cell viability assay.

[62] = test system: TE-11; assay type: functional, cell-based
Description: SANGER: Inhibition of human TE-11 cell growth in a cell viability assay.

[63] = test system: TE-8; assay type: functional, cell-based
Description: SANGER: Inhibition of human TE-8 cell growth in a cell viability assay.

[64] = test system: U-87 MG; assay type: functional, cell-based, U-87MG ATCC
Description: SANGER: Inhibition of human U-87-MG cell growth in a cell viability assay.

[65] = test system: CAS-1; assay type: functional, cell-based
Description: SANGER: Inhibition of human CAS-1 cell growth in a cell viability assay.

[66] = test system: COLO-668; assay type: functional, cell-based
Description: SANGER: Inhibition of human COLO-668 cell growth in a cell viability assay.

`CCNC(=O)c1noc(-c2cc(C(C)C)c(O)cc2O)c1-c1ccc(CN2CCOCC2)cc1` [LUMINESPIB] gave an IC50 [1] greater than 256 nM, an IC50 [2] of 171 nM and an IC50 [3] of 135 nM. The IC50 [4] was greater than 0.256 µM, the IC50 [5] was greater than 256 nM and the IC50 [6] was greater than 0.256 µM. It also gave an IC50 [7] of 186 nM, an IC50 [8] greater than 256 nM and an IC50 [9] of 33.7 nM. It also gave an IC50 [10] of 28.2 nM, an IC50 [11] of 7.49 nM and an IC50 [12] of 106 nM. The IC50 [13] was 175 nM, the IC50 [14] was 21.4 nM and the IC50 [15] was 28.6 nM. It also gave an IC50 [16] of 15.4 nM, an IC50 [17] of 1.55 nM and an IC50 [18] of 10.9 nM. The IC50 [19] was 13.1 nM, the IC50 [20] was 7.03 nM and the IC50 [21] was 14 nM. For the same molecule, the IC50 [22] was 36.4 nM, the IC50 [23] was greater than 256 nM and the IC50 [24] was 13.7 nM. For the same molecule, the IC50 [25] was 41.9 nM, the IC50 [26] was 24.4 nM and the IC50 [27] was 37.3 nM. It also gave an IC50 [28] greater than 256 nM, an IC50 [29] of 12.9 nM and an IC50 [30] of 254 nM. It also gave an IC50 [31] of 36.7 nM, an IC50 [32] of 97.2 nM and an IC50 [33] of 42.3 nM. It also gave an IC50 [34] of 11 nM, an IC50 [35] greater than 256 nM and an IC50 [36] greater than 256 nM. It also gave an IC50 [37] greater than 256 nM, an IC50 [38] of 59.9 nM and an IC50 [39] of 241 nM. The IC50 [40] was greater than 256 nM, the IC50 [41] was 44.4 nM and the IC50 [42] was 22.8 nM. It also gave an IC50 [43] of 34 nM, an IC50 [44] greater than 256 nM and an IC50 [45] of 3.18 nM. It also gave an IC50 [46] of 12.7 nM, an IC50 [47] greater than 256 nM and an IC50 [48] of 20.4 nM. For the same molecule, the IC50 [49] was 4.58 nM, the IC50 [50] was greater than 0.256 µM and the IC50 [51] was 32.2 nM. For the same molecule, the IC50 [52] was 15.8 nM, the IC50 [53] was 18.8 nM and the IC50 [54] was 227 nM. For the same molecule, the IC50 [55] was 17 nM, the IC50 [56] was greater than 0.256 µM and the IC50 [57] was 16.6 nM. For the same molecule, the IC50 [58] was 17.3 nM, the IC50 [59] was 9.52 nM and the IC50 [60] was 12 nM. For the same molecule, the IC50 [61] was 34.3 nM, the IC50 [62] was 200 nM and the IC50 [63] was 2.37 nM. For the same molecule, the IC50 [64] was 32.9 nM, the IC50 [65] was 120 nM and the IC50 [66] was 79.8 nM.

`CO[C@@]12[C@H](COC(N)=O)C3=C(C(=O)C(C)=C(N)C3=O)N1C[C@@H]1N[C@@H]12` [MITOMYCIN] gave an IC50 [1] of 2090 nM, an IC50 [2] of 319 nM and an IC50 [3] of 306 nM. It also gave an IC50 [4] of 7.73 µM, an IC50 [5] of 221 nM and an IC50 [6] greater than 16 µM. The IC50 [7] was 93.8 nM, the IC50 [8] was 1030 nM and the IC50 [9] was less than 62.5 nM. The IC50 [10] was 88.1 nM, the IC50 [11] was less than 62.5 nM and the IC50 [12] was 3940 nM. The IC50 [13] was 61.9 nM, the IC50 [14] was 57.9 nM and the IC50 [15] was 372 nM. For the same molecule, the IC50 [16] was 20.2 nM, the IC50 [17] was 23.8 nM and the IC50 [18] was 109 nM. For the same molecule, the IC50 [19] was 1780 nM, the IC50 [20] was 207 nM and the IC50 [21] was 1080 nM. For the same molecule, the IC50 [22] was less than 62.5 nM, the IC50 [23] was 780 nM and the IC50 [24] was less than 62.5 nM. The IC50 [25] was 30.2 nM, the IC50 [26] was 1720 nM and the IC50 [27] was 322 nM. For the same molecule, the IC50 [28] was 1220 nM, the IC50 [29] was 70.6 nM and the IC50 [30] was 193 nM. It also gave an IC50 [31] of less than 62.5 nM, an IC50 [32] of 991 nM and an IC50 [33] of 646 nM. The IC50 [34] was 175 nM, the IC50 [35] was 907 nM and the IC50 [36] was less than 62.5 nM. The IC50 [37] was 260 nM, the IC50 [38] was 777 nM and the IC50 [39] was 1210 nM. The IC50 [40] was 141 nM, the IC50 [41] was 139 nM and the IC50 [42] was 217 nM. The IC50 [43] was 264 nM, the IC50 [44] was less than 62.5 nM and the IC50 [45] was less than 62.5 nM. The IC50 [46] was 120 nM, the IC50 [47] was 127 nM and the IC50 [48] was 132 nM. The IC50 [49] was 439 nM, the IC50 [50] was greater than 16 µM and the IC50 [51] was less than 62.5 nM. It also gave an IC50 [52] of 165 nM, an IC50 [53] of 104 nM and an IC50 [54] of 35 nM. It also gave an IC50 [55] of 225 nM, an IC50 [56] greater than 16 µM and an IC50 [57] of 128 nM. It also gave an IC50 [58] of 31 nM, an IC50 [59] of 30.6 nM and an IC50 [60] of 145 nM. For the same molecule, the IC50 [61] was less than 62.5 nM, the IC50 [62] was 91.8 nM and the IC50 [63] was 35.9 nM. The IC50 [64] was 1270 nM, the IC50 [65] was 3380 nM and the IC50 [66] was less than 62.5 nM.
